≈ marks a conversion by molar mass, not a printed value. Entries after “also recorded” stand apart in the source; their conditions may differ. Like-named read-outs stand apart in the source and are kept apart here.
Assays:
[1] = Solubility in aqueous buffers, shaker at 37° C., filtrate by UHPLC; format: physicochemical; details: for Concentration mg/mL (UHPLC) / solubility thermodynamic at 2 h: 150 mg/8 mL suspension; for solubility thermodynamic at 2 h: 37 °C, thermodynamic from solid, read-out: Concentration mg/mL (UHPLC); for Solubility compared with crystalline form A / Solubility compared with non-crystalline (amorphous) form B: in words
Method: UHPLC analyses was performed on Agilent 1290 Infinity LC system with a DAD. UV spectra were recorded at 190-400 nm, with the working wavelength of 240 nm. The column used was Waters Acquity UPLC BEH Phenyl (100 mm×2.1 mm i.d., particle size 1.7 μm), at the column temperature of 50° C. Mobile phases employed for gradient elution were water with 0.1% of formic acid as mobile phase A and acetonitrile with 0.1% of formic acid as mobile phase B. Gradient conditions for the analysis were: isocratic flow from 0.0 to 0.5 min with 40% of mobile phase B; linear gradient from 40% of mobile phase B up to 90% of mobile phase B from 0.5 to 4.0 min; isocratic flow at 90% of mobile phase B from 4.0 to 4.5 min; linear gradient down to 40% of mobile phase B from 4.5 to 5.0 min and finally, reconditioning the column for 0.5 min on starting conditions. 1 μL to 10 μL of sample solution was injected at a flow rate of 0.7 mL min^−1.
Solubility of Bardoxolone methyl form D and the patent forms in U.S. Pat. Nos. 8,309,601 and 8,088,824 were determined in aqueous buffers and water. Suspension of tested substance (150 mg/8 mL) was stirred on a shaker (200 rpm) in a closed vial at 37° C. Suspension was filtered and concentration of Bardoxolone methyl in filtrate was determined by UHPLC. Undissolved residue was analyzed by XRPD.

[2] = as indicated in WO2010093944; cited from earlier work
[3] = Physical stability of Form D (pressure, heating, sauna), form checked by XRPD; format: physicochemical; details: for XRD form after transformation by sauna (closed flask, RT): 1 day; for XRD form after pressure: 1 min
Method: Crystalline Form D of Bardoxolone is also stable to conversion after exposure to an atmosphere containing organic solvents, for example ethylene glycol, in a closed vessel at room temperature for 24 hours). Such stability may enable the use of form D in variety of preparation methods including preparation of solid dispersion by spray drying, wet granulation etc.
Sample after being powdered in a mortar and pestle is applied directly on a silicon plate holder. The X-ray powder diffraction pattern was measured with Philips X'Pert PRO X-ray powder diffractometer, equipped with Cu irradiation source=1.54184 Å (Ångström), X'Celerator (2.022° 2θ) detector.
The physical stability of Form D was investigated at different conditions: in heating, under pressure and by sauna.

[4] = buffer pH 1.2 (0.063M HCl + 2.0 g/L NaCl), 2 h at 37° C.
[5] = buffer pH 4.5 (0.05M acetate buffer PhEur), 2 h at 37° C.

Row | Concentration mg/mL (UHPLC) [1, 4] | Concentration mg/mL (UHPLC) ([1]; buffer pH 1.2 (0.063M HCl + 2.0 g/L NaCl), 4 h at 37° C.) | Concentration mg/mL (UHPLC) [1, 5] | solubility thermodynamic at 2 h ([1]; HCl/NaCl buffer, pH 1.2, simulated gastric fluid, buffer pH 1.2 (0.063M HCl + 2.0 g/L NaCl), 2 h at 37° C.) [µg/mL] | solubility thermodynamic at 2 h ([1]; acetate buffer, pH 4.5, aqueous buffer, buffer pH 4.5 (0.05M acetate buffer PhEur), 2 h at 37° C.) [µg/mL] | Solubility compared with crystalline form A [1] | Solubility compared with non-crystalline (amorphous) form B [1] | Solubility compared with crystalline form A ([1]; listed as form D) | Solubility compared with non-crystalline (amorphous) form B ([1]; listed as form D) | XRD form after heating (open vessel) ([3]; 100° C., 5 min) | XRD form after transformation by sauna (closed flask, RT) ([3]; ethylene glycol) | XRD form after pressure ([3]; pressure 1 t) | XRD form after pressure ([3]; pressure 2 t) | XRD form after transformation by sauna (closed flask, RT) ([3]; water) | Compound | Oral bioavailability (in words) [2] | Polymorphic stability, conversion to other forms (in words) ([3]; pressure 1 t or 2 t 1 min, 100° C. 5 min, water sauna RT 90%-100% RH 24 hours, ethylene glycol atmosphere RT 24 hours)
1 | LTQL | LTQL | LTQL | – | – | – | – | – | – | – | – | – | – | – | COC(=O)[C@]12CCC(C)(C)C[C@H]1[C@H]1C(=O)C=C3[C@]4(C)C=C(C#N)C(=O)C(C)(C)[C@@H]4CC[C@@]3(C)[C@]1(C)CC2 [Form A, Methyl-2-cyano-3,12-dioxooleana-1,9(11)-dien-28-oic acid, reference compound] | relatively low oral bioavailability | –
2 | – | – | – | 0.08 | 0.04 (≈ 0.0791 µM) | – | – | – | – | – | – | – | – | – | COC(=O)[C@]12CCC(C)(C)C[C@H]1[C@H]1C(=O)C=C3[C@]4(C)C=C(C#N)C(=O)C(C)(C)[C@@H]4CC[C@@]3(C)[C@]1(C)CC2 [Form B, Methyl-2-cyano-3,12-dioxooleana-1,9(11)-dien-28-oic acid, reference compound] | markedly superior oral bioavailability compared to Form A | –
3 | 0.00004 mg/mL | – | 0.00002 mg/mL | – | – | improved solubility | comparable solubility | higher | comparable | Form D | Form D | Form D | Form D | Form D | COC(=O)[C@]12CCC(C)(C)C[C@H]1[C@H]1C(=O)C=C3[C@]4(C)C=C(C#N)C(=O)C(C)(C)[C@@H]4CC[C@@]3(C)[C@]1(C)CC2 [Form D, Methyl-2-cyano-3,12-dioxooleana-1,9(11)-dien-28-oic acid] | – | maintained; also recorded: resistant to conversion to any other forms

From patent US11427533B2, “Crystalline polymorphs of bardoxolone methyl” (PLIVA HRVATSKA d.o.o., priority 2017, dated 2022)
